Measurements from patent US10934297B2, “5-heteroaryl substituted indazole-3-carboxamides and preparation and use thereof” (Samumed, LLC, priority 2018, dated 2021).

Assays:
[1] = biological target: GSK3β kinase (Homo sapiens (Human), UniProt P49841); assay: GSK3β kinase assay (Ser/Thr 09 peptide Z-lyte FRET); assay type: biochemical; conditions: read-out: EC50 (method: IC50)
In short: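 Non-radioactive Z-lyte FRET read-out, kinase activity expressed as coumarin/fluorescein emission ratio. Compounds incubated with the reaction mixture one hour at room temperature in duplicate, then development buffer added for another hour. IC50 from non-linear regression of dose-response curves.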

[2] = tested on: primary human fibroblasts derived from IPF patients (LL29 cells); assay: Inhibition of the fibrotic process: αSMA staining in TGF-β1 treated LL29 fibroblasts; assay type: cell-based; conditions: Homo sapiens, Fibroblast, 96 h; LL29 cells, TGF-β1 20 ng/mL, 4 days, % αSMA positive cells
In short: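 LL29 fibroblasts from IPF patients, in F12 medium with 1% FBS, treated with TGF-β1 plus compound; TGF-β1 with DMSO as positive control, DMSO alone as negative control. After 4 days' incubation, SYTOX green nucleic acid stain added at 1 μM final, 30 min at room temperature.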

[3] = tested on: SW480 colon carcinoma cells; assay: Cell viability assay (CellTiter-Glo) in SW480 colon carcinoma cells; assay type: cell-based, human; conditions: Homo sapiens, 96 h, four days
In short: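 Viability was taken from CellTiter-Glo ATP luminescence, read about 12 min after reagent addition, relative to DMSO controls. The cells were Sp5-Luc reporter SW480 colon carcinoma cells, 2,000/well in 1% FBS DMEM, exposed to compound for four days at 37 °C.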

[4] = tested on: Wnt activity (Sp5-Luc reporter in SW480 cells); assay: Screening assay for Wnt activity: Sp5-Luc reporter gene assay in SW480 colon carcinoma cells; assay type: cell-based, human; conditions: Homo sapiens, 36 to 48 hours
In short: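 EC50 values come from a variable-slope four-parameter fit of luminescence normalized to DMSO-only wells. The read-out follows 36–48 h incubation at 37 °C, 5% CO2, in DMEM containing 1% fetal bovine serum. Cells are hygromycin-selected SW480 stably expressing firefly luciferase under a Wnt-responsive Sp5 promoter (eight TCF/LEF sites).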

[5] = tested on: IL-6; assay: IL-6 inhibition in LPS-stimulated human peripheral blood mononuclear cells (HTRF); assay type: cell-based; conditions: Homo sapiens, PBMC; for EC50: huPBMCs, LPS 50 ng/mL, 22 hours, IL-6 HTRF; for inhibition at 10 µM: read-out: percent inhibition at 10 μM
In short: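 HTRF 665/620 nm ratio, read after 3 h antibody incubation at room temperature, quantified IL-6 released by fresh human PBMCs (1×10e6 cells/mL, 1% FBS-RPMI). The cells got compound, then 50 ng/mL LPS at 2 h, followed by a further 22 h at 37° C. EC50 came from DMSO-normalized readings run in duplicate.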

[6] = biological target: DYRK1A kinase (Homo sapiens (Human), UniProt Q13627); assay: DYRK1A kinase assay (Ser/Thr 18 peptide Z-lyte FRET); assay type: biochemical; conditions: read-out: EC50 (method: IC50)
In short: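 Kinase reactions with compound ran 1 h at room temperature in duplicate, and development reagent was then added for another hour.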

Chain of GSK3β kinase (P49841 whole entry): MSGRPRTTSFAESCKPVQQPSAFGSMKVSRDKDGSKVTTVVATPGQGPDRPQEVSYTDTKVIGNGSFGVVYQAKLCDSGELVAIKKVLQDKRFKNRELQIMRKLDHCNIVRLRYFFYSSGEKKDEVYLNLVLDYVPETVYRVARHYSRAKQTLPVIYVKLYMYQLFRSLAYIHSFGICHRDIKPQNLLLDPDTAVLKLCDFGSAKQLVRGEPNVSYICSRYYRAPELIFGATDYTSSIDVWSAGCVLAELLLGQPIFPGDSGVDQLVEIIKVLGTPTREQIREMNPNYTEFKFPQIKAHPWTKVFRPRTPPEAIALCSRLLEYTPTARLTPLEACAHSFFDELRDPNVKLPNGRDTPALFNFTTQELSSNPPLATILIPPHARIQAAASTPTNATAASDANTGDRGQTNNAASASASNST

SMILES | IC50 [1] [nM] | EC50 [2] [nM] | EC50 [3] [nM] | EC50 [4] [nM] | EC50 [5] [nM] | IC50 [6] [nM] | inhibition at 10 µM [5] [%]
O=C(Nc1ccc(OC(F)F)cc1)c1n[nH]c2ccc(-c3cnn(C4CCN(CCF)CC4)c3)cc12 [Compound 60, N-(4-(Difluoromethoxy)phenyl)-5-(1-(1-(2-fluoroethyl)piperidin-4-yl)-1H-pyrazol-4-yl)-1H-indazole-3-carboxamide] | > 10000 | 1280 | 3730 | 3850 | 8980 | 1500 | 
O=C(Nc1ccc(OC(F)F)cc1)c1n[nH]c2ccc(-c3cnn(CC4CCNCC4)c3)cc12 [Compound 63, N-(4-(Difluoromethoxy)phenyl)-5-(1-(piperidin-4-ylmethyl)-1H-pyrazol-4-yl)-1H-indazole-3-carboxamide] | 2320 | 2030 | 768 | 9440 | > 10000 | 767 | 6.2
CN1CCC(c2ccc(NC(=O)c3n[nH]c4cc(F)c(-c5cnn(C)c5)cc34)cc2)CC1 [Compound 65, 6-Fluoro-5-(1-methyl-1H-pyrazol-4-yl)-N-(4-(1-methylpiperidin-4-yl)phenyl)-1H-indazole-3-carboxamide] | 44 | 620 | 1100 | 805 | 3180 | 4 | 
CN1CCN(c2ccc(NC(=O)c3n[nH]c4cc(F)c(-c5cnn(C)c5)cc34)cc2)CC1 [Compound 66, 6-Fluoro-5-(1-methyl-1H-pyrazol-4-yl)-N-(4-(4-methylpiperazin-1-yl)phenyl)-1H-indazole-3-carboxamide] | 65 | 650 | 759 | 953 | 1280 | 2 | 
Cn1cc(-c2ccc3[nH]nc(C(=O)Nc4ccc(CN5CCCC5)cc4)c3c2)cn1 [Compound 68, 5-(1-Methyl-1H-pyrazol-4-yl)-N-(4-(pyrrolidin-1-ylmethyl)phenyl)-1H-indazole-3-carboxamide] | 6 | 74 | 360 | 264 | > 10000 | 1 | 
Cn1cc(-c2cc3c(C(=O)Nc4ccc(CN5CCCC5)cc4)n[nH]c3cc2F)cn1 [Compound 69, 6-Fluoro-5-(1-methyl-1H-pyrazol-4-yl)-N-(4-(pyrrolidin-1-ylmethyl)phenyl)-1H-indazole-3-carboxamide] | 20 | 328 | 191 | 308 | 1320 | 2 | 
CCn1cc(-c2ccc3[nH]nc(C(=O)Nc4ccc(CN5CCCC5)cc4)c3c2)cn1 [Compound 70, 5-(1-Ethyl-1H-pyrazol-4-yl)-N-(4-(pyrrolidin-1-ylmethyl)phenyl)-1H-indazole-3-carboxamide] | 25 | 126 | 518 | 512 | 1380 | 5 | 
CC(C)n1cc(-c2ccc3[nH]nc(C(=O)Nc4ccc(CN5CCCC5)cc4)c3c2)cn1 [Compound 71, 5-(1-Isopropyl-1H-pyrazol-4-yl)-N-(4-(pyrrolidin-1-ylmethyl)phenyl)-1H-indazole-3-carboxamide] | 169 | 322 | 1100 | 1490 | 4800 | 25 | 
O=C(Nc1ccc(CN2CCCC2)cc1)c1n[nH]c2ccc(-c3cnn(C4CC4)c3)cc12 [Compound 72, 5-(1-Cyclopropyl-1H-pyrazol-4-yl)-N-(4-(pyrrolidin-1-ylmethyl)phenyl)-1H-indazole-3-carboxamide] | 40 | 242 | 228 | 545 | 1200 | 6 | 
Cn1cc(-c2ccc3[nH]nc(C(=O)Nc4ccc(CN5CCCC5)cc4F)c3c2)cn1 [Compound 73, N-(2-Fluoro-4-(pyrrolidin-1-ylmethyl)phenyl)-5-(1-methyl-1H-pyrazol-4-yl)-1H-indazole-3-carboxamide] | 68 | 799 | 6970 | 1550 | 1160 | 3 | 
Cn1cc(-c2ccc3[nH]nc(C(=O)Nc4ccc(CN5CCCC5)cc4O)c3c2)cn1 [Compound 74, N-(2-Hydroxy-4-(pyrrolidin-1-ylmethyl)phenyl)-5-(1-methyl-1H-pyrazol-4-yl)-1H-indazole-3-carboxamide] | 878 | 35 | > 10000 | 2170 | > 10000 | 305 | 22.1
Cn1cc(-c2cc3c(C(=O)Nc4ccc(CN5CCC(F)CC5)cc4)n[nH]c3cc2F)cn1 [Compound 75, 6-Fluoro-N-(4-((4-fluoropiperidin-1-yl)methyl)phenyl)-5-(1-methyl-1H-pyrazol-4-yl)-1H-indazole-3-carboxamide] | 39 | 159 | 1100 | 542 | 1160 | 3 | 
CN1CCN(Cc2ccc(NC(=O)c3n[nH]c4cc(F)c(-c5cnn(C)c5)cc34)cc2)CC1 [Compound 78, 6-Fluoro-5-(1-methyl-1H-pyrazol-4-yl)-N-(4-((4-methylpiperazin-1-yl)methyl)phenyl)-1H-indazole-3-carboxamide] | 18 | 545 | 454 | 249 | 1140 | 1 | 
CN1CCC(Oc2ccc(NC(=O)c3n[nH]c4cc(F)c(-c5cnn(C)c5)cc34)cc2)CC1 [Compound 79, 6-Fluoro-5-(1-methyl-1H-pyrazol-4-yl)-N-(4-((1-methylpiperidin-4-yl)oxy)phenyl)-1H-indazole-3-carboxamide] | 60 | 61 | 140 | 266 | 1760 | 2 | 
CN1CCC(Oc2ccc(NC(=O)c3n[nH]c4cc(F)c(-c5cnn(C(F)F)c5)cc34)cc2)CC1 [Compound 80, 5-(1-(Difluoromethyl)-1H-pyrazol-4-yl)-6-fluoro-N-(4-((1-methylpiperidin-4-yl)oxy)phenyl)-1H-indazole-3-carboxamide] | 783 | 1300 | 5000 | 8520 | 3440 | 19 | 
Cc1c(-c2cc3c(C(=O)Nc4ccc(OC5CCN(C)CC5)cc4)n[nH]c3cc2F)cnn1C [Compound 81, 5-(1,5-Dimethyl-1H-pyrazol-4-yl)-6-fluoro-N-(4-((1-methylpiperidin-4-yl)oxy)phenyl)-1H-indazole-3-carboxamide] | 35 | 341 | 139 | 115 | 1060 | 1 | 
CN1CCC(Nc2ccc(NC(=O)c3n[nH]c4cc(F)c(-c5cnn(C)c5)cc34)cc2)CC1 [Compound 83, 6-Fluoro-5-(1-methyl-1H-pyrazol-4-yl)-N-(4-((1-methylpiperidin-4-yl)amino)phenyl)-1H-indazole-3-carboxamide] | 74 | 250 | 220 | 275 | 1240 | 2 | 
Cn1cc(-c2cc3c(C(=O)Nc4ccc5c(c4)CNC5)n[nH]c3cc2F)cn1 [Compound 84, 6-Fluoro-N-(isoindolin-5-yl)-5-(1-methyl-1H-pyrazol-4-yl)-1H-indazole-3-carboxamide] | 21 | 1690 | 300 | 1340 | > 10000 | 2 | 2.1
CN1Cc2ccc(NC(=O)c3n[nH]c4cc(F)c(-c5cnn(C)c5)cc34)cc2C1 [Compound 85, 6-Fluoro-5-(1-methyl-1H-pyrazol-4-yl)-N-(2-methylisoindolin-5-yl)-1H-indazole-3-carboxamide] | 35 | 904 | 203 | 566 | 2990 | 2 | 
O=C(Nc1ccc(OC(F)F)nc1)c1n[nH]c2ccc(-c3cnn(C4CNC4)c3)cc12 [Compound 86, 5-(1-(Azetidin-3-yl)-1H-pyrazol-4-yl)-N-(6-(difluoromethoxy)pyridin-3-yl)-1H-indazole-3-carboxamide] | 354 | 1190 | > 10000 | 1840 | > 10000 | 98 | 14.8
